Results on 19 compounds are retold here after ChEMBL document CHEMBL4732147, “A novel [5.2.1]bicyclic amine is a potent analgesic without µ opioid activity” (Bioorg Med Chem Lett, 2021).

The test system of data set [1] is Mus musculus. Kind of data set: Analgesic activity in sc dosed ddY mouse assessed as protection against acetic acid-induced writhing. Type of data set: functional.
For data set [2], the system named is Mus musculus. Kind of data set: Analgesic activity in ddY mouse assessed as protection against acetic acid-induced writhing at 30 mg/kg, sc relative to control. In kind it is functional.
The nature of data set [3]: Plasma concentration in ddY mouse at 30 mg/kg, sc. Also: time not given here. As to conditions: in vivo. Type of data set: ADME, organism-based.
Data set [4] in a line: Drug concentration in ddY mouse brain at 30 mg/kg, sc. Also: time not given here. Type of data set: ADME, organism-based. Particulars: in vivo, read-out: Ct.
For data set [5], the target named is T1, Mu-type opioid receptor (Homo sapiens, UniProt P35372). Kind of data set: Agonist activity at human Gi/G0-coupled mu opioid receptor expressed in human U2OS cells co-expressing EA-tagged beta-arrestin2 assessed as beta-arrestin 2 recruitment by PathHunter assay. In kind it is cell-based.
The subject of data set [6] is Mus musculus. Kind of data set: Analgesic activity in ddY mouse assessed as protection against acetic acid-induced writhing at 3 mg/kg, sc relative to control. In kind it is functional.
In data set [7] the test system is Mus musculus. In words: Analgesic activity in sc dosed ddY mouse assessed as tail flicking. Type of data set: functional.
Data set [8] concerns Mus musculus. Kind of data set: Analgesic activity in ddY mouse assessed as tail flicking at 30 mg/kg, sc relative to control. In kind it is functional.
A short description of data set [9]: Toxicity in sc dosed ddY mouse assessed as effect on locomotor activity. As to conditions: in vivo. Type of data set: organism-based.
For data set [10], the system named is Mus musculus. Kind of data set: Analgesic activity in ddY mouse assessed as tail flicking at 300 mg/kg, sc. In kind it is functional, organism-based.
Data set [11] can be described thus: Toxicity in ddY mouse assessed as hyperactivity at 10 mg/kg, sc. Type of data set: organism-based. Particulars: in vivo.
A short description of data set [12]: Drug concentration in ddY mouse brain at 10 mg/kg. Also: time not given here. In kind it is ADME, organism-based. Particulars: in vivo, read-out: Ct.
In a further data set the test system is Cytochrome P450. Kind of data set: Metabolic stability in human cytochrome P450 assessed as parent compound remaining. Also: time not given here. Type of data set: ADME, protein assay.
A short description of data set [13]: Metabolic stability in mouse cytochrome P450 assessed as parent compound remaining. Also: time not given here. Type of data set: ADME.
Data set [14] can be described thus: Lipophilicity, log D of compound. In kind it is physicochemical. Particulars: octanol/water.
Data set [15] is described as follows: Permeability of compound by PAMPA. In kind it is ADME.
A short description of data set [16]: Protein binding in mouse. In kind it is ADME, organism-based. As to conditions: in vivo, read-out: PB (converted).
A short description of data set [17]: Half life in mouse at 10 mg/kg. As to conditions: in vivo. Type of data set: ADME, organism-based.
The nature of data set [18]: Clearance in mouse at 10 mg/kg. Particulars: in vivo. Type of data set: ADME, organism-based.
The nature of data set [19]: Apparent clearance in mouse at 10 mg/kg. In kind it is ADME, organism-based. As to conditions: in vivo.
Data set [20] can be described thus: Oral bioavailability in mouse at 10 mg/kg. In kind it is ADME, organism-based. As to conditions: in vivo.
Data set [21] has as its target T1, Mu-type opioid receptor. Kind of data set: Binding affinity to mu opioid receptor (unknown origin).

Activity calls are given as the source filed them. The rule behind the calls is not given here.

T1 sequence (P35372 whole entry): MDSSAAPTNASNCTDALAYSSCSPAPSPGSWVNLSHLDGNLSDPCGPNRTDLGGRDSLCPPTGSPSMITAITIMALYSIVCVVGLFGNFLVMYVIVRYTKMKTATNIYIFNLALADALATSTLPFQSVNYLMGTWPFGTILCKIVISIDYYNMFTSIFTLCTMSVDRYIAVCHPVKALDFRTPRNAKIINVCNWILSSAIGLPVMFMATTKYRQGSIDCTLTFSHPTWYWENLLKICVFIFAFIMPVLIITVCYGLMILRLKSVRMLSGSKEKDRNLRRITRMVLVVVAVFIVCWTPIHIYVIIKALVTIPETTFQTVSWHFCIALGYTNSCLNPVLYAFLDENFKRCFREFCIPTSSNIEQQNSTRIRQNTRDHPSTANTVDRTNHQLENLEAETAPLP

Turning to `O=C1N[C@]2(c3ccccc3)CCN(Cc3ccccc31)C2`, the ED50 in the data set on Mus musculus [1] was under 30 mg/kg. In addition, the Activity with Mus musculus [2] came out at 23%. For the same compound, the concentration was 3.5 µM in [3] and 7.7 µM in data set [4].
For `CN1Cc2c(O)cccc2CN2CC[C@@]1(c1ccccc1)C2`, the ED50 in the data set on Mus musculus [1] is under 30 mg/kg. Further, the Activity with Mus musculus [2] is on record as 56%. The EC50 on Mu-type opioid receptor [5] was over 20 µM. In addition, the concentration is 1.9 µM in data set [3] and 18.9 µM in [4].
Regarding `CCCN1Cc2ccccc2CN2CCC1(c1ccccc1)C2` (racemic), the ED50 in the data set with Mus musculus [1] is under 3 mg/kg. For the same compound, the EC50 on Mu-type opioid receptor [5] was 0.7 µM. The Activity in the data set with Mus musculus [6] turned out to be 100%.
Take `CC(=O)N1Cc2ccccc2CN2CC[C@@]1(c1ccccc1)C2`: the results for the ED50 in the data set on Mus musculus [1] and with Mus musculus [7] were 31 mg/kg and over 30 mg/kg, respectively. Moreover, on Mu-type opioid receptor [5], the EC50 was over 20 µM. The concentration came out at 7.8 µM in data set [3] and 6.3 µM in [4]. Besides, the MPE with Mus musculus [8] is 4.9%.
Consider `COc1cccc2c1CN(C)[C@@]1(c3ccccc3)CCN(C2)C1`, for which the ED50 in the data set with Mus musculus [1] is over 30 mg/kg. The Activity in the data set on Mus musculus [2] came to 9.2%. Moreover, the EC50 on Mu-type opioid receptor [5] is over 20 µM. Further, the concentration was 13.4 µM in [3] and 6.2 µM in data set [4].
Turning to `COc1ccc2c(c1)CN(C)[C@@]1(c3ccccc3)CCN(C2)C1`, the ED50 with Mus musculus [1] came out at 11 mg/kg; with Mus musculus [7], 18 mg/kg. For the same compound, at Mu-type opioid receptor [5], the EC50 was over 20 µM. In addition, the concentration came to 0.73 µM in data set [3] and 6.9 µM in [4]. In data set [9], the ID50 was determined as 14 mg/kg.
Consider `O=C1N[C@@]2(c3ccccc3)CCN(Cc3ccccc31)C2`, for which the ED50 with Mus musculus [1] was over 30 mg/kg. Besides, the Activity in the data set on Mus musculus [2] was determined as 23%. In addition, the concentration in data set [3] is 4.4 µM; in data set [4], 11.2 µM. Besides, in the data set on Mus musculus [10], the result was inactive.
As for `CCC(=O)N1Cc2ccccc2CN2CC[C@@]1(c1ccccc1)C2`, in the data set with Mus musculus [1], the ED50 was at least 30 mg/kg. Moreover, the Activity with Mus musculus [2] is 87%. In addition, the EC50 at Mu-type opioid receptor [5] is over 20 µM. The concentration in data set [3] is 5 µM; in data set [4], 8.4 µM.
`COc1ccc2c(c1)CN1CC[C@@](c3ccccc3)(C1)N(C)C2`: the ED50 in the data set with Mus musculus [1] is under 30 mg/kg; in the data set on Mus musculus [7] it was over 30 mg/kg. The Activity with Mus musculus [2] came to 59%. In addition, the EC50 at Mu-type opioid receptor [5] is over 20 µM. Also, the concentration in [3] was 2.2 µM; in [4] it was 24.8 µM. The MPE with Mus musculus [8] was 36%.
As to `CN1Cc2ccccc2CN2CC[C@]1(c1ccccc1)C2`, the ED50 was found to be 1 mg/kg with Mus musculus [1] and 1.7 mg/kg in the data set on Mus musculus [7]. Besides, the EC50 at Mu-type opioid receptor [5] came out at 3 µM. The concentration was determined as 0.75 µM in data set [3] and 15.6 µM in [12]. Besides, the Activity entry in [11] is given as “Toxic”.
Turning to `CN1Cc2ccccc2CN2CC[C@@]1(c1ccccc1)C2`, the ED50 came out at 2 mg/kg in the data set on Mus musculus [1] and 17 mg/kg in the data set with Mus musculus [7]. In addition, the EC50 at Mu-type opioid receptor [5] was over 20 µM. Besides, the concentration was 0.7 µM in data set [3] and 16.3 µM in data set [12]. Besides, the ID50 in data set [9] stood at 15 mg/kg. In addition, the Stabilty in the data set with Cytochrome P450 is recorded as 72%; in data set [13], 1%. Moreover, the logD in data set [14] was determined as 3. In addition, the permeability entry in data set [15] is on record as “Permeable”. In data set [16], the fraction unbound was 0.16. In data set [17], this compound had a half-life of 1.06 h. In [18], this compound gave a clearance of 261 mL/min/kg. The CL/F in data set [19] worked out at 264 mL/min/kg. In data set [20], this compound gave a bioavailability of 55.2%. This compound came in with an inhibition constant Ki at Mu-type opioid receptor [21] of 1.33 µM.
Consider `CN1Cc2ccc(O)cc2CN2CC[C@@]1(c1ccccc1)C2`, for which, in the data set with Mus musculus [2], the Activity was 100%. The EC50 at Mu-type opioid receptor [5] came out at 2.4 µM. Moreover, the values for the concentration in data set [3] and in data set [4] were 1.5 µM and 19.4 µM, respectively.
With `OCCN1Cc2ccccc2CN2CC[C@@]1(c1ccccc1)C2`, the ED50 in the data set on Mus musculus [1] is 18.2 mg/kg; in the data set on Mus musculus [7], over 30 mg/kg. Besides, the EC50 on Mu-type opioid receptor [5] is over 20 µM. For the same compound, the concentration in [3] amounted to 2.7 µM; in data set [4] it was 21.8 µM. Moreover, in [9], the ID50 turned out to be 37 mg/kg. Further, the MPE in the data set on Mus musculus [8] worked out at 18%.
Regarding `CCN1Cc2ccccc2CN2CC[C@@]1(c1ccccc1)C2`, the values for the ED50 with Mus musculus [1] and in the data set with Mus musculus [7] were under 30 mg/kg and over 10 mg/kg, respectively. Besides, the Activity in the data set with Mus musculus [2] stood at 100%. In addition, the EC50 on Mu-type opioid receptor [5] turned out to be 4 µM. The concentration was 1.8 µM in [3] and 33.3 µM in data set [4]. The MPE in the data set on Mus musculus [8] amounted to 43%.
For `COc1cccc2c1CN1CC[C@@](c3ccccc3)(C1)N(C)C2`, the figures for the ED50 with Mus musculus [1] and in the data set with Mus musculus [7] were under 30 mg/kg and 16 mg/kg, respectively. In addition, the Activity with Mus musculus [2] is 100%. Further, the EC50 at Mu-type opioid receptor [5] is over 20 µM. Further, the concentration worked out at 3.1 µM in data set [3] and 31.1 µM in data set [4]. Moreover, in data set [9], the ID50 was 19 mg/kg.
Take `CN1Cc2cc(O)ccc2CN2CC[C@@]1(c1ccccc1)C2`: the ED50 in the data set on Mus musculus [1] was found to be 4.6 mg/kg; in the data set with Mus musculus [7] it was 6.2 mg/kg. The EC50 on Mu-type opioid receptor [5] is over 20 µM. The results for the concentration in [3] and in [4] were 0.74 µM and 8.33 µM, respectively. Further, in data set [9], the ID50 stood at 5.2 mg/kg.
`CN1Cc2cccc(O)c2CN2CC[C@@]1(c1ccccc1)C2`: the ED50 in the data set with Mus musculus [1] is under 30 mg/kg; in the data set on Mus musculus [7], over 30 mg/kg. Besides, the Activity with Mus musculus [2] is listed as 93%. Moreover, the EC50 on Mu-type opioid receptor [5] was over 20 µM. The concentration in [3] turned out to be 0.77 µM; in data set [4], 13 µM. In addition, the MPE with Mus musculus [8] worked out at 6%.
Consider `c1ccc([C@@]23CCN(Cc4ccccc4CN2)C3)cc1`, for which the results for the ED50 with Mus musculus [1] and in the data set with Mus musculus [7] were under 30 mg/kg and over 30 mg/kg, respectively. The Activity in the data set on Mus musculus [2] is reported as 72%. Also, on Mu-type opioid receptor [5], the EC50 is over 20 µM. In addition, the concentration in data set [3] was determined as 2.2 µM; in data set [4] it was 49.2 µM. For the same compound, in the data set on Mus musculus [8], the MPE is 19%.
On to `CN(C)C(=O)CN1Cc2ccccc2CN2CC[C@@]1(c1ccccc1)C2`, for which the ED50 in the data set on Mus musculus [1] was over 30 mg/kg. The Activity with Mus musculus [2] turned out to be 52%. On Mu-type opioid receptor [5], the EC50 is over 20 µM. The concentration in [3] amounted to 4 µM; in data set [4], 5.3 µM.
